Measured values from patent publication US10752587B2, “Homobispiperidinyl derivatives as liver X receptor beta agonists, compositions and their use” (Merck Sharp & Dohme Corp., priority 2015, dated 2020).
Like-named read-outs stand apart in the source and are kept apart here.

Legend:
[1] = target: T1, glutathione-S-transferase (GST) tagged LXRbeta LBD (ligand binding domain) (Homo sapiens, UniProt P55055); test: LanthaScreen TR-FRET Liver X Receptor Coactivator Assay, co-activator recruitment to LXRbeta LBD; format: biochemical; conditions: for EC50: potency (Inflection Point, IP), co-activator recruitment to LXRbeta LBD, in relation to T0901317; for Emax: read-out: LXR beta Activity @ max dose (%)
T1 construct: purchased Invitrogen pv4658.pps
T1 sequence (P55055 222-460 limits assumed): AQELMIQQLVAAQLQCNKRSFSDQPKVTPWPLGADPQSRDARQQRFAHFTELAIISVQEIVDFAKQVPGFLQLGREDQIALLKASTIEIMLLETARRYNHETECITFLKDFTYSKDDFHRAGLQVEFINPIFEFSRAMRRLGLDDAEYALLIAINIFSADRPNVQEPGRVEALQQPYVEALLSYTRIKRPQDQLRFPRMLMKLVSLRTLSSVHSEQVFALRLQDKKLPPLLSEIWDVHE
Procedure, shortened: (§1)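 LXRα- or LXRβ-LBD protein was added to test compounds, then fluorescein-labelled coactivator peptide plus Tb-anti-GST antibody; after room-temperature incubation, TR-FRET was read. Inflection point (IP) and Emax were expressed relative to the dual agonist reference T0901317.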

[2] = target: T2, glutathione-S-transferase (GST) tagged LXRalpha LBD (ligand binding domain) (Homo sapiens, UniProt Q13133); test: LanthaScreen TR-FRET Liver X Receptor Coactivator Assay, co-activator recruitment to LXRalpha LBD; format: biochemical; conditions: for EC50 / LXR alpha IP (nM): potency (Inflection Point, IP), co-activator recruitment to LXRalpha LBD, in relation to T0901317; for Emax: read-out: LXR alpha Activity @ max dose (%)
T2 construct: purchased Invitrogen pv4655
T2 sequence (Q13133 209-447 limits assumed): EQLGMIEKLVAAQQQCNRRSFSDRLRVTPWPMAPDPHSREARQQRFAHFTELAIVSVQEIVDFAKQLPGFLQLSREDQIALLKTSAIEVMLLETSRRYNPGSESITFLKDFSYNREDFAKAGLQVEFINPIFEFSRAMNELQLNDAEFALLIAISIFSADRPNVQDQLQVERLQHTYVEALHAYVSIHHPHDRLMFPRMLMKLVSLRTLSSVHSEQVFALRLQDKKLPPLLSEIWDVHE
Procedure, shortened: as §1

[3] = efficacy at max dose, in relation to reference dual agonist T0901317

| SMILES | LXR beta Activity @ max dose (%) [1, 3] [%] | EC50 ([1]; read-out: LXR beta IP) [nM] | LXR alpha Activity @ max dose (%) [2, 3] [%] | EC50 ([2]; read-out: LXR alpha IP) [nM] | Emax [1, 3] [%] | Emax [2, 3] [%] | LXR alpha IP (nM) [2] | EC50 ([1]; LXR beta IP (nM)) [nM] | Emax [1] [%] | EC50 ([2]; LXR alpha IP (nM)) [nM] | Emax [2] [%] |
| --- | --- | --- | --- | --- | --- | --- | --- | --- | --- | --- | --- |
| CN(C)C(=O)c1ccc(N2CCCN(CC3CCN(C(=O)C(O)(c4cccc(Cl)c4)C(F)(F)F)CC3)CC2)cc1Cl (stereo not drawn) [Example 6-2, 2-chloro-4-[4-({1-[2-(3-chlorophenyl)-3,3,3-trifluoro-2-hydroxypropanoyl]piperidin-4-yl}methyl)-1,4-diazepan-1-yl]-N,N-dimethylbenzamide] |  | 533 |  |  | 98 | 14 | NO IP |  |  |  |  |
| CN(C)C(=O)c1ccc(N2CCC(CC3CCN(C(=O)[C@](O)(c4ccccc4)C(F)(F)C(F)(F)F)CC3)CC2)cc1 [Example 2-140, N,N-dimethyl-4-[4-({1-[(2R)-3,3,4,4,4-pentafluoro-2-hydroxy-2-phenylbutanoyl]piperidin-4-yl}methyl)piperidin-1-yl]benzamide] |  | 84 |  | 836 | 118 | 43 |  |  |  |  |  |
| O=C(c1ccc(N2CCC(CC3CCN(C(=O)[C@](O)(c4ccccc4)C(F)(F)F)CC3)CC2)cc1Cl)N1[C@H]2CC[C@@H]1CC2 [Example 4-21, (2R)-3-{4-[(1-{4-[(1s,4s)-7-aza-bicyclo[2.2.1]hept-7-ylcarbonyl]-3-chlorophenyl}piperidin-4-yl)methyl]piperidin-1-yl}-1,1,1-trifluoro-3-oxo-2-phenylpropan-2-ol] |  | 74 |  | 457 | 63 | 25 |  |  |  |  |  |
| CN(C)C(=O)c1ccc(N2CCC(CC3CCN(C(=O)[C@](O)(c4ccccc4)C4CCCC4)CC3)CC2)nc1Cl [Example 7-98, 2-chloro-6-[4-({1-[(2R)-2-cyclopentyl-2-hydroxy-2-phenylacetyl]piperidin-4-yl}methyl)piperidin-1-yl]-N,N-dimethylpyridine-3-carboxamide] |  |  |  |  |  |  |  | 74 | 76 | 1090 | 19 |
| CN(C)C(=O)c1ccc(N2CCC(CC3CCN(C(=O)c4c(F)cccc4F)CC3)CC2)cc1Cl [Example 2-8, 2-chloro-4-[4-({1-[(2,6-difluorophenyl)carbonyl]piperidin-4-yl}methyl)piperidin-1-yl]-N,N-dimethyl-benzamide] |  | 352 |  |  | 40 | 0 | NO IP |  |  |  |  |
| CN(C)C(=O)c1ccc(N2CCC(CC3CCN(C(=O)[C@](O)(c4cc(Cl)cc(Cl)c4)C(F)(F)F)CC3)CC2)cc1 [Example 2-142, 4-[4-({1-[(2R)-2-(3,5-dichloro-phenyl)-3,3,3-trifluoro-2-hydroxy-propanoyl]piperidin-4-yl}methyl)piperidin-1-yl]-N,N-dimethyl-benzamide] | 60 | 60 | 4 |  |  |  | NO IP |  |  |  |  |
| CN(C)C(=O)c1ccc(N2CCC(CC3CCN(C(=O)[C@](O)(c4cccc(Br)c4)C(F)(F)F)CC3)CC2)cc1Cl [Example 2-83, 4-[4-({1-[(2R)-2-(3-bromo-phenyl)-3,3,3-trifluoro-2-hydroxy-propanoyl]piperidin-4-yl}methyl)piperidin-1-yl]-2-chloro-N,N-dimethyl-benzamide] |  | 4 |  | 83 | 68 | 26 |  |  |  |  |  |
| CN(C)C(=O)c1ccc(N2CCC(CC3CN(C(=O)C(O)(c4cccc(C(F)(F)F)c4)C(F)(F)F)C3)CC2)cc1Cl (stereo not drawn) [Example 2-66, 2-chloro-N,N-dimethyl-4-{4-[(1-{3,3,3-trifluoro-2-hydroxy-2-[3-(trifluoromethyl)phenyl]propanoyl}azetidin-3-yl)methyl]piperidin-1-yl}benzamide] |  | 50 |  |  | 69 | 14 | NO IP |  |  |  |  |
| O=C(c1ccc(N2CCC(CC3CCN(C(=O)[C@](O)(c4ccccc4)C(F)(F)F)CC3)CC2)cc1Cl)N1CCC1 [Example 4-1, (R)-1-(4-((1-(4-(azetidine-1-carbonyl)-3-chlorophenyl)piperidin-4-yl)methyl)piperidin-1-yl)-3,3,3-trifluoro-2-hydroxy-2-phenylpropan-1-one] |  | 53 |  | 555 | 72 | 31 |  |  |  |  |  |
| COc1cccc([C@@](O)(C(=O)N2CCC(CC3CCN(c4ccc(C(=O)N(C)C)c(Cl)c4)CC3)C2)C(F)(F)F)c1 (stereo partly drawn) [Example 2-72, 2-chloro-N,N-dimethyl-4-[4-({1-[(2R)-3,3,3-trifluoro-2-hydroxy-2-(3-methoxy-phenyl)propanoyl]pyrrolidin-3-yl}methyl)piperidin-1-yl]benzamide] |  | 74 |  |  | 39 | 0 | NO IP |  |  |  |  |
| CCOc1cccc([C@@](O)(C(=O)N2CCC(CC3CCN(c4ccc(C(=O)N(C)C)c(C)c4)CC3)CC2)C(F)(F)F)c1 [Example 2-151, 4-[4-({1-[(2R)-2-(3-ethoxy-phenyl)-3,3,3-trifluoro-2-hydroxy-propanoyl]piperidin-4-yl}methyl)piperidin-1-yl]-N,N,2-trimethyl-benzamide] |  | 9 |  |  | 45 | 4 | NO IP |  |  |  |  |
| COc1cccc([C@](N)(C(=O)N2CCC(CC3CCN(c4ccc(C(=O)N(C)C)c(Cl)c4)CC3)CC2)C(F)(F)F)c1 [Example 2-119, 4-[4-({1-[(2S)-2-amino-3,3,3-trifluoro-2-(3-methoxy-phenyl)propanoyl]piperidin-4-yl}methyl)piperidin-1-yl]-2-chloro-N,N-dimethyl-benzamide] |  | 208 |  |  | 99 | 11 | NO IP |  |  |  |  |
| Cc1cc(N2CCC(CC3CCN(C(=O)[C@](O)(c4cccc(OC(F)(F)F)c4)C(F)(F)F)CC3)CC2)ccc1C(=O)N(C)C [Example 2-150, N,N,2-trimethyl-4-{4-[(1-{(2R)-3,3,3-trifluoro-2-hydroxy-2-[3-(trifluoromethoxy)phenyl]propanoyl}piperidin-4-yl)methyl]piperidin-1-yl}benzamide] |  | 23 |  |  | 56 | 15 | NO IP |  |  |  |  |

Second part, led by results:

| LXR beta Activity @ max dose (%) [1, 3] [%] | EC50 ([1]; read-out: LXR beta IP) [nM] | LXR alpha Activity @ max dose (%) [2, 3] [%] | EC50 ([2]; read-out: LXR alpha IP) [nM] | Emax [1, 3] [%] | Emax [2, 3] [%] | LXR alpha IP (nM) [2] | SMILES | EC50 ([1]; LXR beta IP (nM)) [nM] | Emax [1] [%] | EC50 ([2]; LXR alpha IP (nM)) [nM] | Emax [2] [%] |
| --- | --- | --- | --- | --- | --- | --- | --- | --- | --- | --- | --- |
| 91 | 19 | 46 | 455 |  |  |  | CNC(=O)c1ccc(N2CCC(CC3CCN(C(=O)[C@](O)(c4ccccc4)C(F)(F)F)CC3)CC2)cc1Cl [Example 7-126, 2-chloro-N-methyl-4-[4-({1-[(2R)-3,3,3-trifluoro-2-hydroxy-2-phenylpropanoyl]piperidin-4-yl}methyl)piperidin-1-yl]benzamide] |  |  |  |  |
|  | 10 |  |  | 47 | 6 | NO IP | CCOc1cccc([C@@](O)(C(=O)N2CCC(C)(CC3CCN(c4ccc(C(=O)N(C)C)c(Cl)n4)CC3)CC2)C(F)(F)F)c1 [Example 7-50, 2-chloro-6-[4-({1-[(2R)-2-(3-ethoxyphenyl)-3,3,3-trifluoro-2-hydroxypropanoyl]-4-methylpiperidin-4-yl}methyl)piperidin-1-yl]-N,N-dimethylpyridine-3-carboxamide] |  |  |  |  |
|  | 4 |  |  | 52 | 15 | NO IP | Cc1cccc([C@@](O)(C(=O)N2CCC(CC3CCN(c4ccc(C(=O)N(C)C)c(Cl)n4)CC3)CC2)C(F)(F)F)c1 [Example 7-88, 2-chloro-N,N-dimethyl-6-[4-({1-[(2R)-3,3,3-trifluoro-2-hydroxy-2-(3-methylphenyl)propanoyl]piperidin-4-yl}methyl)piperidin-1-yl]pyridine-3-carboxamide] |  |  |  |  |
|  | 12 |  | 425 | 85 | 27 |  | CN(C)C(=O)c1ccc(N2CCC(CC3CCN(C(=O)[C@](O)(c4ccccc4F)C(F)(F)F)CC3)CC2)nc1Cl [Example 7-80, 2-chloro-N,N-dimethyl-6-[4-({1-[(2R)-3,3,3-trifluoro-2-(2-fluorophenyl)-2-hydroxypropanoyl]piperidin-4-yl}methyl)piperidin-1-yl]pyridine-3-carboxamide] |  |  |  |  |
|  | 165 |  |  | 75 | 32 | NO IP | CN(C)C(=O)c1ccc(N2CCC(CC3CCN(C(=O)C(F)(F)c4ccccc4)CC3)CC2)nc1Cl [Example 7-86, 2-chloro-6-[4-({1-[difluoro(phenyl)acetyl]piperidin-4-yl}methyl)piperidin-1-yl]-N,N-dimethylpyridine-3-carboxamide] |  |  |  |  |
